Measurements: PubChem BioAssay (NCI)
Where “and” joins values, the source holds several entries; their conditions need not be identical. Identical values can stand only once.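 These data come from cells grown in 96-well plates and exposed to compound for 48 hours at five concentrations. GI50 is the concentration that inhibits growth by half. TGI is the concentration that stops growth completely.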

What was measured:
Assay in all cases: DTP human tumour cell line panel, 48 h
[1] = tested on: HOP-62 NSCLC
[2] = tested on: SN12C renal
[3] = tested on: CCRF-CEM leukemia
[4] = tested on: UACC-257 melanoma
[5] = tested on: MALME-3M melanoma
[6] = tested on: RPMI-8226 leukemia
[7] = tested on: SNB-19 CNS
[8] = tested on: NCI/ADR-RES ovarian
[9] = tested on: HS 578T breast
[10] = tested on: DU-145 prostate

| Structure (SMILES) | TGI [1] [µM] | TGI [2] | TGI [3] | TGI [4] [µM] | TGI [5] [µM] | TGI [6] [µM] | TGI [7] | GI50 [1] [µM] | GI50 [8] [µM] | TGI [8] [µM] | GI50 [2] [µM] | GI50 [3] [µM] | GI50 [4] [µM] | GI50 [9] [µM] | TGI [9] [µM] | GI50 [10] [µM] | TGI [10] [µM] | GI50 [5] [µM] | GI50 [7] [µM] | GI50 [6] [µM] |
| --- | --- | --- | --- | --- | --- | --- | --- | --- | --- | --- | --- | --- | --- | --- | --- | --- | --- | --- | --- | --- |
| CN(N=O)C(=O)NC(CCCCNC(=O)OCc1ccccc1)C(=O)OCc1ccccc1 (stereo not drawn) | 79.6 | 31.9 µM | 57.1 µM | 33.5 | 89.6 | 95.4 | > 100 µM | – | – | – | – | – | – | – | – | – | – | – | – | – |
| CC(C)N1CCOC(c2ccc(O)c(O)c2)C1 (stereo not drawn) | > 100 | > 100 µM | > 100 µM | > 100 | > 100 | > 100 | > 100 µM | – | – | – | – | – | – | – | – | – | – | – | – | – |
| COc1ccc(C(O)C(c2ccc(OCc3ccccc3)cc2)c2ccc(OCc3ccccc3)cc2)cc1 (stereo not drawn) | > 100 | > 100 µM | > 100 µM | – | > 100 | > 100 | > 100 µM | – | – | – | – | – | – | – | – | – | – | – | – | – |
| Oc1ccc(CCNc2nc3ccccc3c3[nH]c4ccccc4c23)cc1O | 13.5 | 7.29 µM | 4.35 µM | 40.2 | 6.28 | – | 11.2 µM | 3.78 | 9.15 | 32.2 | 1.94 | 1.59 | 25.5 | 8.28 | > 100 | 2.45 | 7.44 | 2.23 | 3.06 | – |
| COc1cc(OC)c(OC)cc1/C=C/c1ccccn1 | > 10 | > 10 µM | > 10 µM | > 10 | > 10 | – | > 10 µM | – | – | > 10 | – | – | – | – | > 10 | – | > 10 | – | – | – |
| O=S(=O)(c1ccccc1)N1CCC1c1ccccc1 (stereo not drawn) | > 100 | > 100 µM | > 100 µM | > 100 | > 100 | > 100 | > 100 µM | – | – | – | – | – | – | – | – | – | – | – | – | – |
| Cc1cc[c]([Sb]2[O]C(CO)C(C(O)C(O)C(=O)O)[O]2)cc1 (stereo not drawn) | > 100 | > 100 µM | > 100 µM | – | > 100 | – | > 100 µM | 45.2 | > 100 | > 100 | 51.9 | > 100 | – | 87.7 | > 100 | 38.5 | > 100 | > 100 | 60.6 | – |
| O=c1cc(-c2cccc(Cl)c2)[nH]c2cc3c(cc12)OCO3 | 2.85 | 75 µM and 12.5 µM | 75 µM and 22.6 µM | > 100 | – | > 100 | 75 µM and 10.2 µM | – | – | – | 0.522 | – | – | – | 1.74 | – | 0.863 | 0.31 | 0.363 | – |
| O=NN(CC1(O)OCC(O)C(O)C1O)C(Cc1c[nH]c2ccccc12)C(=O)O (stereo not drawn) | > 100 | – | > 100 µM | > 100 | > 100 | > 100 | – | – | – | – | – | – | – | – | – | – | – | – | – | – |
| CCOc1ccc2c(c1)[n+]([O-])c(-c1ccccc1)c(N)[n+]2[O-] | > 100 | > 100 µM | > 100 µM | > 100 | > 100 | > 100 | > 100 µM | – | – | – | – | – | – | – | – | – | – | – | – | – |
| O=c1c2ccccc2c(=O)n2n1-c1cccc(c1)CSSCc1cccc-2c1 | > 100 | > 100 µM | > 100 µM | – | > 100 | > 100 | > 100 µM | > 100 | – | – | > 100 | > 100 | – | – | – | – | – | > 100 | > 100 | > 100 |
| Cc1cccc(-c2nc(=S)[nH][nH]2)c1 | > 100 | > 100 µM | > 100 µM | > 100 | > 100 | > 100 | > 100 µM | – | – | – | – | – | – | – | – | – | – | – | – | – |
| CCN(CC)CCN1C(=O)C2C3C(C)=CC(OC(C)=O)(CC3C)C2C1=O (stereo not drawn) | > 100 | > 100 µM | > 100 µM | > 100 | > 100 | – | > 100 µM | > 100 | > 100 | > 100 | > 100 | > 100 | > 100 | 75.3 | > 100 | > 100 | > 100 | > 100 | > 100 | – |
| CCN(CC)CC(C(=O)Nc1c(C)cccc1C)/C(C)=N\NC(=S)NN (stereo not drawn) | > 100 | – | > 100 µM | > 100 | > 100 | > 100 | – | – | – | – | – | – | – | – | – | – | – | – | – | – |
| O=c1c(-c2cccc3ccccc23)c(-c2cccc3ccccc23)c1=O | 49.1 | > 100 µM | > 50 µM | > 39.6 | > 86.2 | > 100 | 61 µM | – | – | – | – | – | – | – | – | – | – | – | – | – |
| CC1COS(=O)N1c1ccccc1 (stereo not drawn) | > 100 | – | > 100 µM | > 100 | > 100 | > 100 | – | – | – | – | – | – | – | – | – | – | – | – | – | – |
| NCCNCCNCc1c2ccccc2c(CNCCNCCN)c2ccccc12 | > 100 | > 100 µM | > 100 µM | > 100 | > 100 | > 100 | – | – | – | – | – | – | – | – | – | – | – | – | – | – |
| O=C(O)CN(CCN(CC(=O)O)CC(=O)O)CCN(CC(=O)O)CC(=O)O | 5.07 | 13.9 µM | > 100 µM | 18.8 | – | – | 61.6 µM | 1.98 | 3.1 | 13.7 | 2.8 | 3.18 | 4.35 | 2.09 | 56.7 | 2.94 | 8.82 | – | 5.18 | – |
| O=C(O)c1ccccc1NS(=O)(=O)c1ccc(Cl)cc1 | > 100 | > 100 µM | > 100 µM | > 100 | > 100 | > 100 | > 100 µM | – | – | – | – | – | – | – | – | – | – | – | – | – |
| Cc1cc2c(cc1Cl)SC(=Nc1ccc(Cl)cc1)N(S(=O)(=O)c1ccc(Br)s1)S2(=O)=O | 37.4 | 32.6 µM | > 100 µM | 38.7 | – | 21.5 | 46.4 µM | 17.8 | 12.2 | 26.5 | 14.1 | 10.1 | 16 | 25.3 | 62.2 | 13.3 | 26.1 | – | 13.7 | 3.7 |
| CC1=NC2(C(=O)O)C3(C(=O)O)N=C(C)OC3(C(F)(F)F)C2(C(F)(F)F)O1 (stereo not drawn) | > 100 | > 100 µM | > 100 µM | > 100 | > 100 | – | > 100 µM | – | – | – | – | – | – | – | – | – | – | – | – | – |
| [Cu].c1ccc2c(c1)C1=NC2=NC2=NC(=NC3=NC(=NC4=NC(=N1)c1ccccc14)c1ccccc13)c1ccccc12 | > 100 | > 100 µM | – | > 100 | > 100 | > 100 | > 100 µM | > 100 | > 100 | > 100 | > 100 | – | > 100 | > 100 | > 100 | > 100 | > 100 | > 100 | > 100 | > 100 |
